Data as given in US20240116985A1, “STAPLED PEPTIDES AND METHODS THEREOF” (priority 2020, published 2024).
Like-named read-outs stand apart in the source and are kept apart here.

Legend:
[1] = CHI Log D procedure; type: physicochemical; settings: for CHI Log D / logD: pH 7.4; for chromatographic logD: pH 7.4, CHI Log D
[2] = target: T1, full-length beta-Catenin (Uniprot ID P35222) (Homo sapiens, UniProt P35222); experiment: Fluorescence polarization IC50 (beta-catenin / 5FAM-TCF4 10-53 competition); type: binding
T1 construct: 10 nM full-length beta-Catenin (Uniprot ID P35222)
T1 sequence (P35222 1-781): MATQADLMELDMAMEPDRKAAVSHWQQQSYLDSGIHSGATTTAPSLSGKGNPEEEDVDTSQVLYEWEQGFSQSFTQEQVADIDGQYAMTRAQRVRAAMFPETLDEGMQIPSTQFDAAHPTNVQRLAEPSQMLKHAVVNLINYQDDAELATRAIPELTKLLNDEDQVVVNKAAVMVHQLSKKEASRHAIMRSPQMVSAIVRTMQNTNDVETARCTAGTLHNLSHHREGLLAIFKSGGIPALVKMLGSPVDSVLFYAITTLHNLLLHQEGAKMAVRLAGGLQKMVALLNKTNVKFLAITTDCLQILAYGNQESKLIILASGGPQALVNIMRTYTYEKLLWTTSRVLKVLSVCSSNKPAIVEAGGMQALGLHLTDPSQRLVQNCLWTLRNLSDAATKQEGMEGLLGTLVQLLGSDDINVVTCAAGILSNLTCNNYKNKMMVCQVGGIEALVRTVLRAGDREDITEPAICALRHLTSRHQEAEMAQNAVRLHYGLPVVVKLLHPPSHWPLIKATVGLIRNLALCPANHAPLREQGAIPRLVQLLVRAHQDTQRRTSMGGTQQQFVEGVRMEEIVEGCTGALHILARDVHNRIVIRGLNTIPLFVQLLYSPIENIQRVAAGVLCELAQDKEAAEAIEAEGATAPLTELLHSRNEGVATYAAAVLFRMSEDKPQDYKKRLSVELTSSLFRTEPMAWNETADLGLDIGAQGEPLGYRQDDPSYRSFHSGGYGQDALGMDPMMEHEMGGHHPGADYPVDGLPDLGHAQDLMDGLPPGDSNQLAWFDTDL

[3] = fluorescence polarization, read-out: beta-Catenin FP IC50

CC[C@H](C)[C@@H]1NC(=O)[C@H](CC(=O)O)NC(=O)[C@]2(CC=CCCCC3(CCCC=CCCCCCC[C@@](C)(C(=O)N[C@@H](Cc4ccccc4)C(=O)N[C@@H](Cc4csc5ccccc45)C(=O)N[C@@H](CCC(N)=O)C(N)=O)NC(=O)[C@H](CCC(N)=O)NC(=O)[C@H](Cc4ccccc4)NC(=O)[C@H](C)NC(=O)[C@H](C)NC(=O)[C@H](CN(CC(=O)O)CC(F)(F)F)NC(=O)[C@H](CC(=O)O)NC3=O)NC1=O)CCCN2C(C)=O (stereo partly drawn) [I-610, Ac-PL3-Asp-Ile-B5-Asp-TfeGA-Ala-Ala-Phe-Gln-S8-Phe-BztA-Gln-NH2]
CHI Log D [1]: 2.587 | logD [1]: 2.6 | IC50 [2, 3]: 54 nM | IC50 ([2]; read-out: FP EC50): 54 nM | IC50 ([2]; read-out: bCat FP IC50): 54 nM

CC[C@H](C)[C@@H]1NC(=O)[C@H](CC(=O)O)NC(=O)[C@]2(CC=CCCCC3(CCCC=CCCCCCC[C@@](C)(C(=O)N[C@@H](Cc4ccccc4)C(=O)N[C@@H](Cc4csc5ccccc45)C(=O)N[C@@H](CCC(N)=O)C(N)=O)NC(=O)[C@H](CCC(N)=O)NC(=O)[C@H](Cc4ccccc4)NC(=O)[C@H](C)NC(=O)[C@H](C)NC(=O)[C@H](CN(CC(=O)O)CC(F)(F)F)NC(=O)[C@H](CC(=O)O)NC3=O)NC1=O)CCCN2C(C)=O (stereo partly drawn) [I-611, Ac-PL3-Asp-Ile-B5-Asp-TfeGA-Ala-Ala-Phe-Gln-S8-Phe-BztA-Gln-NH2]
CHI Log D [1]: 2.595 | logD [1]: 2.6 | IC50 [2, 3]: 55 nM | IC50 ([2]; read-out: FP EC50): 55 nM | IC50 ([2]; read-out: bCat FP IC50): 55 nM

CC[C@H](C)[C@@H]1NC(=O)[C@H](CNS(=O)(=O)C(F)(F)F)NC(=O)[C@]2(CC=CCCCC3(CCCC=CCCCCCC[C@@](C)(C(=O)N[C@@H](Cc4ccccc4)C(=O)N[C@@H](Cc4csc5ccccc45)C(=O)N[C@@H](CCC(N)=O)C(N)=O)NC(=O)[C@H](CCC(N)=O)NC(=O)[C@H](Cc4ccccc4)NC(=O)[C@H](C)NC(=O)[C@H](C)NC(=O)[C@H](CCC(=O)O)NC(=O)[C@H](CC(=O)O)NC3=O)NC1=O)CCCN2C(C)=O (stereo partly drawn) [I-632, Ac-PL3-[Tf]Dap-Ile-B5-Asp-Glu-Ala-Ala-Phe-Gln-S8-Phe-BztA-Gln-NH2]
chromatographic logD [1]: 3.15 | IC50 [2, 3]: 5000 nM

CCCC[C@@H]1NC(=O)[C@H](C)NC(=O)[C@H](CCC(=O)O)NC(=O)[C@H](CC(=O)O)NC(=O)C2(CCCC=CCCCCCC[C@@](C)(C(=O)N[C@@H](Cc3ccccc3)C(=O)N[C@@H](Cc3csc4ccccc34)C(=O)N[C@@H](CCC(N)=O)C(N)=O)NC(=O)[C@H](CCC(N)=O)NC(=O)[C@H](Cc3ccccc3)NC1=O)CCCC=CC[C@]1(CCCN1C(C)=O)C(=O)N[C@@H](CC(=O)O)C(=O)N[C@@H]([C@@H](C)CC)C(=O)N2 (stereo partly drawn) [I-666, Ac-PL3-Asp-Ile-B5-Asp-Glu-Ala-nLeu-Phe-Gln-S8-Phe-BztA-Gln-NH2]
CHI Log D [1]: 2.862 | IC50 [2, 3]: 626 nM | IC50 ([2]; read-out: FP EC50): 626 nM

CCCC[C@@H]1NC(=O)[C@H](C)NC(=O)[C@H](CCC(=O)O)NC(=O)[C@H](CC(=O)O)NC(=O)C2(CCCC=CCCCCCC[C@@](C)(C(=O)N[C@@H](Cc3ccccc3)C(=O)N[C@@H](Cc3csc4ccccc34)C(=O)N[C@@H](CCC(N)=O)C(N)=O)NC(=O)[C@H](CCC(N)=O)NC(=O)[C@H](Cc3ccccc3)NC1=O)CCCC=CC[C@]1(CCCN1C(C)=O)C(=O)N[C@@H](CC(=O)O)C(=O)N[C@@H]([C@@H](C)CC)C(=O)N2 (stereo partly drawn) [I-667, Ac-PL3-Asp-Ile-B5-Asp-Glu-Ala-nLeu-Phe-Gln-S8-Phe-BztA-Gln-NH2]
CHI Log D [1]: 2.88 | IC50 [2, 3]: 585 nM | IC50 ([2]; read-out: FP EC50): 585 nM

CC[C@H](C)[C@@H]1NC(=O)C[C@H](C(=O)O)NC(=O)[C@]2(CC=CCCCC3(CCCC=CCCCCCC[C@@](C)(C(=O)N[C@@H](Cc4ccccc4)C(=O)N[C@@H](Cc4csc5ccccc45)C(=O)N[C@@H](CCC(N)=O)C(N)=O)NC(=O)[C@H](CCC(N)=O)NC(=O)[C@H](Cc4ccccc4)NC(=O)[C@H](C)NC(=O)[C@H](C)NC(=O)[C@H](CCC(=O)O)NC(=O)[C@H](CC(=O)O)NC3=O)NC1=O)CCCN2C(C)=O (stereo partly drawn) [I-668, Ac-PL3-isoDAsp-Ile-B5-Asp-Glu-Ala-Ala-Phe-Gln-S8-Phe-BztA-Gln-NH2]
CHI Log D [1]: 2.199 | IC50 [2, 3]: 675 nM | IC50 ([2]; read-out: FP EC50): 675 nM

CC[C@H](C)[C@@H]1NC(=O)C[C@H](C(=O)O)NC(=O)[C@]2(CC=CCCCC3(CCCC=CCCCCCC[C@@](C)(C(=O)N[C@@H](Cc4ccccc4)C(=O)N[C@@H](Cc4csc5ccccc45)C(=O)N[C@@H](CCC(N)=O)C(N)=O)NC(=O)[C@H](CCC(N)=O)NC(=O)[C@H](Cc4ccccc4)NC(=O)[C@H](C)NC(=O)[C@H](C)NC(=O)[C@H](CCC(=O)O)NC(=O)[C@H](CC(=O)O)NC3=O)NC1=O)CCCN2C(C)=O (stereo partly drawn) [I-669, Ac-PL3-isoDAsp-Ile-B5-Asp-Glu-Ala-Ala-Phe-Gln-S8-Phe-BztA-Gln-NH2]
CHI Log D [1]: 2.25 | IC50 [2, 3]: 451 nM | IC50 ([2]; read-out: FP EC50): 451 nM

CC[C@H](C)[C@@H]1NC(=O)C[C@H](CC(=O)O)NC(=O)[C@]2(CC=CCCCC3(CCCC=CCCCCCC[C@@](C)(C(=O)N[C@@H](Cc4ccccc4)C(=O)N[C@@H](Cc4csc5ccccc45)C(=O)N[C@@H](CCC(N)=O)C(N)=O)NC(=O)[C@H](CCC(N)=O)NC(=O)[C@H](Cc4ccccc4)NC(=O)[C@H](C)NC(=O)[C@H](C)NC(=O)[C@H](CCC(=O)O)NC(=O)[C@H](CC(=O)O)NC3=O)NC1=O)CCCN2C(C)=O (stereo partly drawn) [I-671, Ac-PL3-RbGlu-Ile-B5-Asp-Glu-Ala-Ala-Phe-Gln-S8-Phe-BztA-Gln-NH2]
CHI Log D [1]: 2.25 | IC50 [2, 3]: 3140 nM | IC50 ([2]; read-out: FP EC50): 3140 nM

CC[C@H](C)[C@@H]1NC(=O)C[C@@H](CC(=O)O)NC(=O)[C@]2(CC=CCCCC3(CCCC=CCCCCCC[C@@](C)(C(=O)N[C@@H](Cc4ccccc4)C(=O)N[C@@H](Cc4csc5ccccc45)C(=O)N[C@@H](CCC(N)=O)C(N)=O)NC(=O)[C@H](CCC(N)=O)NC(=O)[C@H](Cc4ccccc4)NC(=O)[C@H](C)NC(=O)[C@H](C)NC(=O)[C@H](CCC(=O)O)NC(=O)[C@H](CC(=O)O)NC3=O)NC1=O)CCCN2C(C)=O (stereo partly drawn) [I-672, Ac-PL3-SbGlu-Ile-B5-Asp-Glu-Ala-Ala-Phe-Gln-S8-Phe-BztA-Gln-NH2]
chromatographic logD [1]: 1.9 | IC50 [2, 3]: 5000 nM

CC[C@H](C)[C@@H]1NC(=O)[C@H](CC(=O)O)NC(=O)[C@]2(CC=CCCCC3(CCCC=CCCCCCC[C@@](C)(C(=O)N[C@@H](Cc4ccccc4)C(=O)N[C@@H](Cc4csc5ccccc45)C(=O)N[C@@H](CCC(N)=O)C(N)=O)NC(=O)[C@H](CCC(N)=O)NC(=O)[C@H](Cc4ccccc4)NC(=O)[C@H](C)NC(=O)[C@H](C)NC(=O)[C@H](CCC(=O)O)NC(=O)C[C@@H](C(=O)O)NC3=O)NC1=O)CCCN2C(C)=O (stereo partly drawn) [I-673, Ac-PL3-Asp-Ile-B5-isoAsp-Glu-Ala-Ala-Phe-Gln-S8-Phe-BztA-Gln-NH2]
chromatographic logD [1]: 1.87 | IC50 [2, 3]: 5000 nM

CC[C@H](C)[C@@H]1NC(=O)[C@H](CC(=O)O)NC(=O)[C@]2(CC=CCCCC3(CCCC=CCCCCCC[C@@](C)(C(=O)N[C@@H](Cc4ccccc4)C(=O)N[C@@H](Cc4csc5ccccc45)C(=O)N[C@@H](CCC(N)=O)C(N)=O)NC(=O)[C@H](CCC(N)=O)NC(=O)[C@H](Cc4ccccc4)NC(=O)[C@H](C)NC(=O)[C@H](C)NC(=O)[C@H](CCC(=O)O)NC(=O)C[C@H](C(=O)O)NC3=O)NC1=O)CCCN2C(C)=O (stereo partly drawn) [I-674, Ac-PL3-Asp-Ile-B5-isoDAsp-Glu-Ala-Ala-Phe-Gln-S8-Phe-BztA-Gln-NH2]
chromatographic logD [1]: 1.95 | IC50 [2, 3]: 5000 nM

CC[C@H](C)[C@@H]1NC(=O)[C@H](CC(=O)O)NC(=O)[C@]2(CC=CCCCC3(CCCC=CCCCCCC[C@@](C)(C(=O)N[C@@H](Cc4ccccc4)C(=O)N[C@@H](Cc4csc5ccccc45)C(=O)N[C@@H](CCC(N)=O)C(N)=O)NC(=O)[C@H](CCC(N)=O)NC(=O)[C@H](Cc4ccccc4)NC(=O)[C@H](C)NC(=O)[C@H](C)NC(=O)[C@H](CCC(=O)O)NC(=O)C[C@H](CC(=O)O)NC3=O)NC1=O)CCCN2C(C)=O (stereo partly drawn) [I-675, Ac-PL3-Asp-Ile-B5-RbGlu-Glu-Ala-Ala-Phe-Gln-S8-Phe-BztA-Gln-NH2]
chromatographic logD [1]: 2.13 | IC50 [2, 3]: 4520 nM

CC[C@H](C)[C@@H]1NC(=O)[C@H](CC(=O)O)NC(=O)[C@]2(CC=CCCCC3(CCCC=CCCCCCC[C@@](C)(C(=O)N[C@@H](Cc4ccccc4)C(=O)N[C@@H](Cc4csc5ccccc45)C(=O)N[C@@H](CCC(N)=O)C(N)=O)NC(=O)[C@H](CCC(N)=O)NC(=O)[C@H](Cc4ccccc4)NC(=O)[C@H](C)NC(=O)[C@H](C)NC(=O)[C@H](CCC(=O)O)NC(=O)C[C@@H](CC(=O)O)NC3=O)NC1=O)CCCN2C(C)=O (stereo partly drawn) [I-676, Ac-PL3-Asp-Ile-B5-SbGlu-Glu-Ala-Ala-Phe-Gln-S8-Phe-BztA-Gln-NH2]
chromatographic logD [1]: 2.29 | IC50 [2, 3]: 5000 nM
